In patent publication US10323001B2, “Compositions for modulating a kinase cascade and methods of use thereof” (Athenex, Inc., priority 2006, dated 2019):
Like-named read-outs stand apart in the source and are kept apart here.

Tests used:
[1] = test system: Src protein substrates; experiment: Src substrate phosphorylation in c-Src transformed NIH3T3 cells; assay type: cell-based; conditions: c-Src (527F, constitutively active and transforming) transformed NIH3T3 cells
Text: (§1) Compounds of the invention or salts thereof may be Src signaling inhibitors that bind in the Src peptide substrate site. The activity of various compounds of the invention and salts has been studied in c-Src ([…], constitutively active and transforming) transformed NIH3T3 cells and in human colon cancer cells (HT29).

[2] = test system: Src protein substrates; experiment: Src substrate phosphorylation in human colon cancer cells (HT29); assay type: cell-based
Text: as §1

[3] = Moisture-sorption analysis (Hiden IGAsorp); assay type: physicochemical; conditions: 25° C.
Description: Moisture-sorption experiments were performed using a Hiden IGAsorp Moisture Sorption instrument on KX2-391.MSA obtained in accordance with the process of the present invention (Example 4). First, the sample was dried at 0% Relative Humidity (RH) and 25° C. until an equilibrium weight was reached or for a maximum of four hours. The sample was then subjected to an isothermal (25° C.) adsorption scan from 10 to 90% RH in steps of 10%. The sample was allowed to equilibrate to an asymptotic weight at each point for a maximum of four hours. Following adsorption, a desorption scan from 85 to 0% RH (at 25° C.) was run in steps of −10% again allowing a maximum of four hours for equilibration to an asymptotic weight. The sample was then dried for one hour at 80° C. and the resulting solid analyzed by XRPD. […] FIG. 10 depicts percent change of water content as a function of relative humidity for KX2-391.MSA, Form A.
Moisture-sorption experiments were performed using a Hiden IGAsorp Moisture Sorption Instrument on KX2-391.2HCl obtained in accordance with the process of the present invention (Example 3). First, the sample was dried at 0% Relative Humidity (RH) and 25° C. until an equilibrium weight was reached or for a maximum of four hours. The sample was then subjected to an isothermal (25° C.) adsorption scan from 10 to 90% RH in steps of 10%. The sample was allowed to equilibrate to an asymptotic weight at each point for a maximum of four hours. Following adsorption, a desorption scan from 85 to 0% RH (at 25° C.) was run in steps of −10% again allowing a maximum of four hours for equilibration to an asymptotic weight. The sample was then dried for one hour at 80° C. and the resulting solid analyzed by XRPD.

[4] = Humidity chamber hygroscopicity study (salt solution chambers, visual inspection); assay type: physicochemical; conditions: ambient temperature
Description: Further characterization of the hygroscopicity of the mesylate salt was performed using several humidity chambers to cover a range of humidity from 75, 88 to 95% RH. The 75, 88, and 95% RH chambers were prepared with NaCl, BaCl2.2H2O, and Na2HPO4.12 H2O respectively and were equilibrated for 48 hours prior to introducing the samples. Samples were placed into aluminum pans and monitored by visual inspection for up to five days. Table 3 summarizes the observations at 0, 3, 5, 24, 48, 72, 96 and 120 hour time points.
Moisture sorption studies conducted at ambient temperature utilizing salt solution humidity chambers were conducted to evaluate solid stability by visual inspection.

[5] = Solubility in DI water and pH 2.0 phosphate buffer; assay type: physicochemical; conditions: for solubility: thermodynamic from solid
Description: The table below summarizes additional characterization data for the fumaric and maleate KX2-391.MSA salts and compares it to free base, bis-HCl, and MSA salts described above. The results in the table below were obtained using the procedures described above in Examples 5 (XRPD), 6 (DSC), 7 (TGA), and 8 (moisture-sorption).
Solubility experiments were also performed using pH 2.0 phosphate buffer and DI water pH 6.9 and KX2-391.MSA, Form A. Each vial was filled with approximately 50 mg of KX2-391.MSA, Form A and 100 μL aliquots of the corresponding solvent was added until complete dissolution was observed, followed by stirring at room temperature for one and five days. The solids obtained were isolated by filtration, dried under vacuum at room temperature and analyzed by HPLC. The initial HPLC purity of KX2-391.MSA, Form A was 99.4 (% area). The solubility by HPLC of KX2-391.MSA, Form A in phosphate buffer/RT was >500 mg/mL and HPLC purity was measured to be 99.4. The solubility by HPLC of KX2-391.MSA, Form A in DI H2O/RT was >500 mg/mL and HPLC purity was measured to be 99.4.

[6] = Humidity chamber hygroscopicity study (salt solution chambers, visual inspection); assay type: physicochemical; conditions: ambient temperature
[7] = % RH 90.0102, end of adsorption
[8] = % RH 90.0102, start of desorption
[9] = % RH −0.0430, end of desorption
[10] = % RH −0.0500, start of adsorption scan

Structure (SMILES): O=C(Cc1ccc(-c2ccc(OCCN3CCOCC3)cc2)cn1)NCc1ccccc1 [KX2-391, 2-(5-(4-(2-morpholinoethoxy)phenyl)pyridin-2-yl)-N-benzylacetamide]
- phosphorylation level of known Src protein substrates [1]: reduce the phosphorylation level of known Src protein substrates in a dose-dependent fashion
- phosphorylation level of known Src protein substrates [2]: reduce the phosphorylation level of known Src protein substrates in a dose-dependent fashion
- Moisture Sorption Wt % Water @ 90% RH ([3]; listed as Free base): 3.7 wt %

Structure (SMILES): Cl.Cl.O=C(Cc1ccc(-c2ccc(OCCN3CCOCC3)cc2)cn1)NCc1ccccc1 [KX2-391.2HCl, 2-(5-(4-(2-morpholinoethoxy)phenyl)pyridine-2-yl)-N-benzylacetamide dihydrochloride]
- inflection point of moisture sorption (suggesting deliquescence) [3]: 40-50 % RH
- hygroscopicity by moisture sorption analysis ([3]; adsorption scan 10 to 90% RH): significantly hygroscopic
- water absorbed at 60% RH ([3]; 60% RH): 16.7 wt %
- Moisture Sorption Wt % Water @ 90% RH [3]: 27.0 wt %
- Mole ration (water:sample) ([3]; % RH 4.9957, desorption): 1.3860
- Wt % water ([3]; % RH 4.9957, desorption): 4.7176 Wt %
- Mole ration (water:sample) ([3]; % RH 10.0011, adsorption): 2.0998
- Wt % water ([3]; % RH 10.0011, adsorption): 6.9776 Wt %
- Mole ration (water:sample) ([3]; % RH 15.0035, desorption): 2.0512
- Wt % water ([3]; % RH 15.0035, desorption): 6.8271 Wt %
- Mole ration (water:sample) ([3]; % RH 20.0071, adsorption): 2.4810
- Wt % water ([3]; % RH 20.0071, adsorption): 8.1412 Wt %
- Mole ration (water:sample) ([3]; % RH 25.0029, desorption): 4.0655
- Wt % water ([3]; % RH 25.0029, desorption): 12.6812 Wt %
- Mole ration (water:sample) ([3]; % RH 29.9953, adsorption): 2.7855
- Wt % water ([3]; % RH 29.9953, adsorption): 9.0498 Wt %
- Mole ration (water:sample) ([3]; % RH 35.0089, desorption): 4.3683
- Wt % water ([3]; % RH 35.0089, desorption): 13.4981 Wt %
- Mole ration (water:sample) ([3]; % RH 39.9936, adsorption): 3.1317
- Wt % water ([3]; % RH 39.9936, adsorption): 10.0615 Wt %
- Mole ration (water:sample) ([3]; % RH 45.0063, desorption): 4.6309
- Wt % water ([3]; % RH 45.0063, desorption): 14.1945 Wt %
- Mole ration (water:sample) ([3]; % RH 50.0083, adsorption): 4.7853
- Wt % water ([3]; % RH 50.0083, adsorption): 14.5986 Wt %
- Mole ration (water:sample) ([3]; % RH 54.9876, desorption): 4.8578
- Wt % water ([3]; % RH 54.9876, desorption): 14.7870 Wt %
- Mole ration (water:sample) ([3]; % RH 59.9940, adsorption): 5.6228
- Wt % water ([3]; % RH 59.9940, adsorption): 16.7261 Wt %
- Mole ration (water:sample) ([3]; % RH 64.9989, desorption): 5.0957
- Wt % water ([3]; % RH 64.9989, desorption): 15.3997 Wt %
- Mole ration (water:sample) ([3]; % RH 70.0044, adsorption): 6.6487
- Wt % water ([3]; % RH 70.0044, adsorption): 19.1922 Wt %
- Mole ration (water:sample) ([3]; % RH 75.0016, desorption): 5.5767
- Wt % water ([3]; % RH 75.0016, desorption): 16.6119 Wt %
- Mole ration (water:sample) ([3]; % RH 80.0002, adsorption): 7.4350
- Wt % water ([3]; % RH 80.0002, adsorption): 20.9856 Wt %
- Mole ration (water:sample) ([3]; % RH 84.9979, desorption): 8.3910
- Wt % water ([3]; % RH 84.9979, desorption): 23.0617 Wt %
- Mole ration (water:sample) [3, 7]: 10.3345
- Wt % water [3, 7]: 26.9630 Wt %
- Mole ration (water:sample) [3, 8]: 10.3345
- Wt % water [3, 8]: 26.9630 Wt %
- Mole ration (water:sample) [3, 9]: 0.3038
- Wt % water [3, 9]: 1.0737 Wt %
- Mole ration (water:sample) [3, 10]: 1.7493
- Wt % water [3, 10]: 5.8814 Wt %
- Time to deliquescence ([4]; 42% RH): <3 h
- Results (visual inspection) ([4]; 42% RH, dihydrochloride): deliquescence was observed within three hours
- Time to deliquescence ([4]; 51% RH, dihydrochloride): ≤ 12 h
- Time to deliquescence ([4]; 51% RH, listed as KX2-391•2HCl, dihydrochloride): <12 h
- Results (visual inspection) ([4]; 95% RH): Deliquescence
- Time to deliquescence ([4]; 95% RH, dihydrochloride): ≤ 12 h
- Time to deliquescence ([4]; 95% RH, listed as KX2-391•2HCl, dihydrochloride): <12 h
- deliquescence humidity at ambient temperature [4]: 32-42 % RH
- pH of solubility sample [5]: 2.1
- pH of solubility sample ([5]; pH 2): (1.9)
- solubility ([5]; pH 2, aqueous buffer): > 500 mg/mL
- solubility ([5]; pH 6.9, water): > 500 mg/mL
- Results (visual inspection) ([6]; 32% RH, 7 days, dihydrochloride): remain stable
- Results (visual inspection) ([6]; 32% RH, 7 days, listed as KX2-391•2HCl, dihydrochloride): Solid
- Results (visual inspection) ([6]; 42% RH, dihydrochloride): Deliquescence
- Results (visual inspection) ([6]; 51% RH): Deliquescence
